In series [1] the target is Transient receptor potential cation channel subfamily V member 4 (Homo sapiens, UniProt Q9HBA0). As to the kind of experiment: Antagonist activity at human TRPV4 assessed as inhibition of 4alpha-PDD-induced activation.
Series [2] concerns the target Transient receptor potential cation channel subfamily V member 4 (Rattus norvegicus, UniProt Q9ERZ8). As to the kind of experiment: Antagonist activity at rat TRPV4 assessed as inhibition of 4alpha-PDD-induced activation.
Series [3] in a line: Stability in human liver microsomes assessed as parent compound remaining after 30 mins in presence or absence of NADPH. In kind it is ADME, microsome. The following applies: read-out: Stability. (In general: Liver microsomes are a subcellular fraction often used to study metabolism.)
Series [4] can be described thus: Stability in rat liver microsomes assessed as parent compound remaining after 30 mins in presence or absence of NADPH. The following applies: read-out: Stability. In kind it is ADME, microsome.
Series [5] is described as follows: Antagonist activity at guinea pig TRPV4 assessed as inhibition of 4alpha-PDD-induced activation. Further details: species or system Cavia porcellus.
A short description of series [6]: Selectivity ratio of IC50 for rat TRPV4 to IC50 for human TRPV4.
A short description of series [7]: Plasma concentration in po dosed Dunkin-Hartley guinea pig complete Freund's adjuvant-induced mechanical hyperalgesia model measured up to 6 hrs post dose. In kind it is ADME, organism-based, Cavia porcellus.
In another series the test system is Cavia porcellus. As to the kind of experiment: Analgesic activity in po dosed Dunkin-Hartley guinea pig complete Freund's adjuvant-induced mechanical hyperalgesia model assessed as reversal in paw withdrawal threshold measured up to 6 hrs post dose relative to control. It counts as functional.
Series [8] can be described thus: Protein binding in guinea pig. In kind it is ADME, Cavia porcellus. The following applies: read-out: PB (converted).
Series [9] is described as follows: Ratio of free plasma concentration to IC50 for TRPV4 in guinea pig. In kind it is ADME, cell-free, Cavia porcellus.
For series [10], the system named is Rattus norvegicus. As to the kind of experiment: Analgesic activity in rat assessed as reversal of complete Freund's adjuvant-induced mechanical hyperalgesia at 30 mg/kg, po after 5 hrs relative to control. In kind it is functional.
Series [11] deals with Rattus norvegicus. As to the kind of experiment: Analgesic activity in rat assessed as reversal of complete Freund's adjuvant-induced mechanical hyperalgesia at 30 mg/kg, po after 1 hr relative to control. In kind it is functional.

What is called IC50 is the concentration that inhibits the measured activity by half.

Transient receptor potential cation channel subfamily V member 4 (Homo sapiens, UniProt Q9HBA0), sequence (Q9HBA0 whole entry): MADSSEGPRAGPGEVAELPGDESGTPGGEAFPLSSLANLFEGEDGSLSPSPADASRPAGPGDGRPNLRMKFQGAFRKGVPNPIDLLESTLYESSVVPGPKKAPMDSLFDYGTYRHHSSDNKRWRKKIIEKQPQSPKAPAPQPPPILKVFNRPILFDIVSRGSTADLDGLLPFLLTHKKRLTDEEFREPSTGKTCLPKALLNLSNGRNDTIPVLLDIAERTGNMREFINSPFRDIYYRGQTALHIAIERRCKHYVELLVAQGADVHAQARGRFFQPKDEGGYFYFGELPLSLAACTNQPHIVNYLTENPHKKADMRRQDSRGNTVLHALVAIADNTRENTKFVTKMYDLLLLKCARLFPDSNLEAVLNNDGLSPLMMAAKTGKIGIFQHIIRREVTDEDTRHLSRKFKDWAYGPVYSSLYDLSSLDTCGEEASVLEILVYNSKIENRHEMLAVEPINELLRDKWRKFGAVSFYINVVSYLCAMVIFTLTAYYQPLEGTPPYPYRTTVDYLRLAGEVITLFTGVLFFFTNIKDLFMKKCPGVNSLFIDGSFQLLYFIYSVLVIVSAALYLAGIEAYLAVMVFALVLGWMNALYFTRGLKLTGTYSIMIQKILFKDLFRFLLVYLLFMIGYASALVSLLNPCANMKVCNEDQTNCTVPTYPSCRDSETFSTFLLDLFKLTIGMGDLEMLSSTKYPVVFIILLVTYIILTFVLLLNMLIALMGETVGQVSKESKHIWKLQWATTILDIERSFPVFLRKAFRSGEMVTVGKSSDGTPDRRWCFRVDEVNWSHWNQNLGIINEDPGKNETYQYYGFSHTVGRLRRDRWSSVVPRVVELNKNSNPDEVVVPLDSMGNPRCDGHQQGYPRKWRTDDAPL
Transient receptor potential cation channel subfamily V member 4 (Rattus norvegicus, UniProt Q9ERZ8), sequence (Q9ERZ8 whole entry): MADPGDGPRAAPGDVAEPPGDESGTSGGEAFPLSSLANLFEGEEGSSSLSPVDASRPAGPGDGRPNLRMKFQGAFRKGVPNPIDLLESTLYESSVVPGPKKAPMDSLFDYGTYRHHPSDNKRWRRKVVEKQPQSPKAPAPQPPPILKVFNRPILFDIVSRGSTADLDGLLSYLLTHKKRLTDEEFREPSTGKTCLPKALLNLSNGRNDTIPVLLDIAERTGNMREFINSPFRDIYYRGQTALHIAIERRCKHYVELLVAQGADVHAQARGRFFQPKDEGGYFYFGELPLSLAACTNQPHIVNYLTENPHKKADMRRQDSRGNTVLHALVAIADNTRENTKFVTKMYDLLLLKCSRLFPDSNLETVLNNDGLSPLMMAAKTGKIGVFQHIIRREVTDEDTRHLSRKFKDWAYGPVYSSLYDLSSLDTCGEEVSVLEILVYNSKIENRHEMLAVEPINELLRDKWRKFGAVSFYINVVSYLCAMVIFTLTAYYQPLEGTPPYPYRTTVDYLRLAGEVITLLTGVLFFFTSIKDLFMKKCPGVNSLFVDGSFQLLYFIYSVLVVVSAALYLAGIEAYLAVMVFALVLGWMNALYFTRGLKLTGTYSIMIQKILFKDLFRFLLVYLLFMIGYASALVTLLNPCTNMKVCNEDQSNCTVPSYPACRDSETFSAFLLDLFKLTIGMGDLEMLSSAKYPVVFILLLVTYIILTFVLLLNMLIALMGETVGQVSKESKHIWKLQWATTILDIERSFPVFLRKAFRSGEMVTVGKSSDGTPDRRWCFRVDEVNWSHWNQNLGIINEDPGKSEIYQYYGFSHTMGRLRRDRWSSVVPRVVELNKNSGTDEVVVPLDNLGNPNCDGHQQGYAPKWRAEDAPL

Take `Cc1nc(C)c(-c2csc(Nc3ccc(C(=O)N4[C@@H]5CC[C@H]4C[C@@H](N)C5)cn3)n2)s1`: the half-inhibitory concentration (IC50) in series [1] came to 0.53 µM.

Regarding `Cc1nc(C)c(-c2csc(Nc3ccc(C(=O)N4[C@@H]5CC[C@H]4C[C@H](O)C5)cn3)n2)s1`, the IC50 in [1] was 0.65 µM.

For the compound `CC(=O)N1CC2CCC(C1)N2C(=O)c1ccc(Nc2nc(-c3sc(C)nc3C)cs2)nc1`, the IC50 in [2] amounted to 0.6 µM; in series [1] it was 0.032 µM; in series [5] it was 0.021 µM. Moreover, the remaining at 0.5 h stood at 59.4% in [3] and 92.1% in [4].

In the case of `Cc1nc(C)c(-c2csc(Nc3ccc(C(=O)N4[C@@H]5CC[C@H]4C[C@@H](OC(=O)NCCF)C5)cn3)n2)s1`, the half-maximal inhibitory concentration (IC50) was found to be 0.29 µM in series [2], 0.0067 µM in [1] and 0.0062 µM in series [5].

In the case of `Cc1nc(C)c(-c2csc(Nc3ccc(C(=O)N4[C@@H]5CC[C@H]4C[C@@H](Oc4ncc(C(F)(F)F)cn4)C5)cn3)n2)s1`, the IC50 in [2] was found to be 0.12 µM; in [1] it was 0.0048 µM; in series [5], 0.0027 µM.

For `Cc1nc(C)c(-c2csc(Nc3ccc(C(=O)N4[C@@H]5CC[C@H]4C[C@@H](OCCO)C5)cn3)n2)s1`, the half-inhibitory concentration (IC50) is 0.2 µM in series [2], 0.0062 µM in [1] and 0.01 µM in series [5].

As for `CO[C@H]1C[C@H]2CC[C@@H](C1)N2C(=O)c1ccc(Nc2nc(-c3sc(C)nc3C)cs2)nc1`, the IC50 in series [1] came to 0.0024 µM.

As for `Cc1nc(C)c(-c2csc(Nc3ccc(C(=O)N4[C@@H]5CC[C@H]4C[C@@H](O)C5)cn3)n2)s1`, the IC50 was found to be 1 µM in series [2], 0.032 µM in series [1] and 0.033 µM in series [5].

In the case of `Cc1nc(C)c(-c2csc(Nc3ccc(C(=O)N4[C@@H]5CC[C@H]4C[C@@H](NC(=O)CC(F)(F)F)C5)cn3)n2)s1`, in series [1], the IC50 turned out to be 0.019 µM.

`Cc1nc(C)c(-c2csc(Nc3ccc(C(=O)N4[C@@H]5CC[C@H]4C[C@@H](CO)C5)cn3)n2)s1`: in series [1], the IC50 was 0.041 µM.

Regarding `Cc1nc(C)c(-c2csc(Nc3ccc(C(=O)N4C5CCC4CC(=O)C5)cn3)n2)s1`, the Ratio IC50 in series [6] came out at 15. Also, the values for the concentration for half-maximal inhibition (IC50) in series [2], in [1] and in series [5] were 0.36 µM, 0.024 µM and 0.045 µM, respectively.

As to `Cc1nc(C)c(-c2csc(Nc3ccc(C(=O)N4C5CCC4CNC5)cn3)n2)s1`, the IC50 in [1] stood at 0.62 µM. The values for the remaining at 0.5 h in [3] and in [4] were 64.9% and 63.9%, respectively.

In the case of `Cc1nc(C)c(-c2csc(Nc3ccc(C(=O)N4[C@@H]5CC[C@H]4C/C(=N/OCC(F)(F)F)C5)cn3)n2)s1`, the half-maximal inhibitory concentration (IC50) in series [2] is 0.018 µM; in [1], 0.00036 µM; in [5], 0.002 µM. The remaining at 0.5 h in series [3] stood at 47.7%; in series [4], 50.4%.

Turning to `Cc1c(C(=O)Nc2cccc(C(F)(F)F)c2)cc(-c2ccccc2)n1CCCN1CCOCC1`, the IC50 in series [1] stood at 0.057 µM.

Take `COC(=O)N1CC2CCC(C1)N2C(=O)c1ccc(Nc2nc(-c3sc(C)nc3C)cs2)nc1`: the IC50 in [2] was found to be 0.053 µM; in series [1], 0.0017 µM; in [5], 0.002 µM. The remaining at 0.5 h in series [3] came to 48.6%; in [4], 53%.

For `Cc1nc(C)c(-c2csc(Nc3ccc(C(=O)N4C5CCC4CN(c4ccc(Cl)cc4)C5)cn3)n2)s1`, the IC50 in series [2] was found to be 0.41 µM; in series [1], 0.0032 µM; in [5], 0.0088 µM. In addition, the results for the remaining at 0.5 h in series [3] and in series [4] were 72.6% and 68.3%, respectively.

Take `Cc1nc(C)c(-c2csc(Nc3ccc(C(=O)N4[C@@H]5CC[C@H]4C/C(=N/OC[C@@H](O)C(F)(F)F)C5)cn3)n2)s1`: the half-maximal inhibitory concentration (IC50) in series [2] is 0.029 µM; in series [1], 0.0011 µM; in series [5], 0.0023 µM. For the same compound, the remaining at 0.5 h came out at 43% in [3] and 49.6% in series [4].

With `Cc1nc(C)c(-c2csc(Nc3ccc(C(=O)N4[C@@H]5CC[C@H]4C/C(=N/OCC(N)=O)C5)cn3)n2)s1`, in series [1], the 50% inhibitory concentration (IC50) is 0.024 µM. In addition, the remaining at 0.5 h in series [3] turned out to be 89%; in series [4], 84.8%.

Consider `Cc1nc(C)c(-c2csc(Nc3ccc(C(=O)N4C5COCC4CC(=O)C5)cn3)n2)s1`, for which the Ratio IC50 in [6] worked out at 42. Moreover, the 50% inhibitory concentration (IC50) stood at 0.8 µM in [2], 0.019 µM in series [1] and 0.027 µM in [5]. Further, in series [7], the concentration at 6 h was 0.515 µg/mL. The Activity in the series on Cavia porcellus amounted to 30.8%. Further, the fraction unbound in series [8] was 0.1. For the same compound, the Ratio in series [9] is given as 1.9.

On to `Cc1nc(C)c(-c2csc(Nc3ccc(C(=O)N4[C@@H]5CC[C@H]4C/C(=N/OC4CCN(C)CC4)C5)cn3)n2)s1`, for which the results for the IC50 in [2], in [1] and in series [5] were 0.057 µM, 0.0045 µM and 0.0064 µM, respectively. Besides, the values for the remaining at 0.5 h in series [3] and in [4] were 77% and 83.7%, respectively.

Regarding `Cc1nc(C)c(-c2csc(Nc3ccc(C(=O)N4C5CCC4CN(c4ccc(Cl)cn4)C5)cn3)n2)s1`, the IC50 amounted to 0.02 µM in series [2], 0.0009 µM in series [1] and 0.0007 µM in series [5]. Moreover, the remaining at 0.5 h in [3] came out at 72.7%; in [4], 89%.

On to `COC(=O)N1CCN(C(=O)c2ccc(Nc3nc(-c4sc(C)nc4C)cs3)nc2)C(C(F)(F)F)C1` (stereo not given), for which the IC50 in [2] worked out at 0.015 µM; in [1] it was 0.00057 µM; in [5], 0.0027 µM. In addition, the remaining at 0.5 h is 64.1% in series [3] and 49.2% in [4].

Turning to `Cc1nc(C)c(-c2csc(Nc3ccc(C(=O)N4[C@@H]5CC[C@H]4C/C(=N/OCCCO)C5)cn3)n2)s1`, the IC50 in series [2] stood at 0.057 µM; in [1], 0.0029 µM; in series [5], 0.0033 µM. Also, the remaining at 0.5 h in [3] was determined as 64.5%; in series [4] it was 59.1%.

`Cc1nc(C)c(-c2csc(Nc3ccc(C(=O)N4C5CCC4CN(c4ncc(Cl)cn4)C5)cn3)n2)s1`: the half-inhibitory concentration (IC50) turned out to be 0.016 µM in series [2], 0.0003 µM in series [1] and 0.002 µM in series [5]. The remaining at 0.5 h in [3] was 76.4%; in series [4] it was 68.4%.

Regarding `COc1ccc2c(c1)c(CC(=O)O)c(C)n2C(=O)c1ccc(Cl)cc1` [INDOMETHACIN], the Activity in the series with Rattus norvegicus [10] worked out at 6.1%; in the series on Rattus norvegicus [11], 11.4%.

Turning to `Cc1nc(C)c(-c2csc(Nc3ccc(C(=O)N4C5CNCC4COC5)cn3)n2)s1`, the IC50 was found to be 0.1 µM in [2], 0.0032 µM in [1] and 0.0043 µM in series [5]. Besides, the remaining at 0.5 h in series [3] came out at 57.9%; in series [4] it was 71.5%.

For the compound `CNC(=O)N1CC2CCC(C1)N2C(=O)c1ccc(Nc2nc(-c3sc(C)nc3C)cs2)nc1`, the IC50 in [1] worked out at 0.77 µM. For the same compound, the remaining at 0.5 h came out at 83.5% in [3] and 88.5% in [4].

With `Cc1nc(C)c(-c2csc(Nc3ccc(C(=O)N4C5CCC4CN(C4CCCCC4)C5)cn3)n2)s1`, the concentration for half-maximal inhibition (IC50) in [1] came to 0.0028 µM. The remaining at 0.5 h in series [3] amounted to 0.58%; in [4] it was 0%.

For `Cc1nc(C)c(-c2csc(Nc3ccc(C(=O)N4[C@@H]5CC[C@H]4C/C(=N/O)C5)cn3)n2)s1`, in series [1], the IC50 is 0.0084 µM. Besides, the values for the remaining at 0.5 h in series [3] and in series [4] were 80.5% and 38.8%, respectively.

On to `Cc1nc(C)c(-c2csc(Nc3ccc(C(=O)N4[C@@H]5CC[C@H]4C/C(=N/OCCO)C5)cn3)n2)s1`, for which the IC50 in series [1] amounted to 0.006 µM. Besides, the remaining at 0.5 h in series [3] worked out at 84.9%; in series [4], 74.5%.

Regarding `CC(=O)N[C@H]1C[C@H]2CC[C@@H](C1)N2C(=O)c1ccc(Nc2nc(-c3sc(C)nc3C)cs2)nc1`, the IC50 in series [1] was 0.08 µM.

Take `Cc1nc(C)c(-c2csc(Nc3ccc(C(=O)N4C5CCC4CN(CC(F)(F)F)C5)cn3)n2)s1`: the half-maximal inhibitory concentration (IC50) in series [1] was determined as 0.0021 µM. Besides, the values for the remaining at 0.5 h in series [3] and in series [4] were 0% and 8.5%, respectively.

`CCNC(=O)O[C@H]1C[C@H]2CC[C@@H](C1)N2C(=O)c1ccc(Nc2nc(-c3sc(C)nc3C)cs2)nc1`: the IC50 in series [1] amounted to 0.0019 µM.

Take `CO/N=C1\C[C@H]2CC[C@@H](C1)N2C(=O)c1ccc(Nc2nc(-c3sc(C)nc3C)cs2)nc1`: the half-maximal inhibitory concentration (IC50) in [1] stood at 0.001 µM. Further, the results for the remaining at 0.5 h in series [3] and in [4] were 79.1% and 12.5%, respectively.

Take `COC(=O)N1CC2CCCC(C1)N2C(=O)c1ccc(Nc2nc(-c3sc(C)nc3C)cs2)nc1`: the half-maximal inhibitory concentration (IC50) in [1] stood at 0.0018 µM. Moreover, the remaining at 0.5 h in [3] stood at 33.7%; in series [4], 43.8%.

For `COC(=O)N1CCN(C(=O)c2ccc(Nc3nc(-c4sc(C)nc4C)cs3)nc2)CC1`, the figures for the half-maximal inhibitory concentration (IC50) in series [2], in series [1] and in [5] were 1.1 µM, 0.037 µM and 0.056 µM, respectively. The values for the remaining at 0.5 h in [3] and in series [4] were 94.1% and 77.9%, respectively.

`Cc1nc(C)c(-c2csc(Nc3ccc(C(=O)N4[C@@H]5CC[C@H]4CC(=NOCC(C)(C)O)C5)cn3)n2)s1`: the IC50 amounted to 0.0044 µM in series [1] and 0.0083 µM in series [5]. For the same compound, the results for the remaining at 0.5 h in series [3] and in series [4] were 70% and 75.5%, respectively.

(Values after ChEMBL document CHEMBL3853343, “Discovery of novel 2',4'-dimethyl-[4,5'-bithiazol]-2-yl amino derivatives as orally bioavailable TRPV4 antagonists for the treatment of pain: Part 2” (Bioorg Med Chem Lett, 2016).)
